Measured values as given in a melting point compilation (Tetko et al.; mined from patent text by program, amines drawn as free bases though some values may be those of a salt).

Compound Cc1ccc2[nH]c(-c3ccc(S(N)(=O)=O)cc3)c(-c3ccccc3)c2c1 has a melting point of 242 to 244 °C. Compound CCCOc1ccc(S(=O)(=O)N2CCN(C)CC2)cc1-c1cc2c([nH]1)c(=O)n(C)c(=O)n2CCC has a melting point of 198 °C. For CCC(O)(c1ccc(O)cc1)c1ccc(Br)cc1 (stereo unspecified), the melting point was 161 to 162 °C. OCCCc1ccc(SCc2coc(/C=C/c3ccccc3)n2)cc1 gave a melting point of 91 to 92 °C. Compound C=Cn1ccnc1C#N has a melting point of 81.5 °C. With CC1CCCC(NC(CCc2ccccc2)C(=O)O)C(=O)N1CC(=O)O (stereo unspecified) the melting point was 215 to 217 °C. Work on CC(C)(C)OC(=O)NNC(=O)c1cc(OCc2ccccc2)c(OCc2ccccc2)c(CSc2ccncc2)n1 yielded a melting point of 181 to 182 °C. CCc1c2c(cc3c(=O)cc(C(=O)O)oc13)CCCC2 showed a melting point of 269 to 271 °C. In the case of NS(=O)(=O)c1cc(C(=O)O)cc(SCc2ccccn2)c1-c1ccccc1, the melting point is reported as 83 to 86 °C. In the case of Cc1c(SC(=S)N(C)C)sn(-c2ccccc2)c1=O, the melting point is reported as 158 to 160 °C. COc1ccc(C(C#N)C2(O)CCCCC2)cc1 (stereo unspecified) gave a melting point of 125 to 127 °C. CC(C)(C)OC(=O)NC1C(=O)N(OCc2ccccc2)C12CCOCC2 (stereo unspecified) gave a melting point of 144 to 146 °C. For COc1ccc(C2=NN(c3nc4ccccc4s3)C(=O)[C@H]3CC=CC[C@@H]23)cc1OC (relative stereo), the melting point was 176 to 177 °C. For CC(=O)OCC(C)(COC(C)=O)C(=O)O, the melting point was 85 °C. O=C(NC1CC1)c1cc(Nc2nc(N3CCCC3c3ccccn3)nc3ccoc23)[nH]n1 (stereo unspecified) showed a melting point of 238 °C. Compound Nc1cc(C(=O)O)cc(OCc2ccccc2)c1-c1ccccc1 has a melting point of 161 to 162 °C. For CCCCCCCCCCCCCCC1(C(=O)OC)CO1 (stereo unspecified), the melting point was 47 to 48 °C. Work on CC(Cc1cccc([N+](=O)[O-])c1)NC=O (stereo unspecified) yielded a melting point of 99 to 100 °C. Compound O=C(Nc1ccc(-n2nc(-c3ccccc3)c3cccnc32)cc1)C(F)(F)F has a melting point of 172 to 174 °C. For CCCO[C@@H](Cc1ccc(OCCc2nc(-c3ccc(-c4ccccc4)cc3)oc2C)c2ccsc12)C(=O)O, the melting point was 147 to 151 °C. CNC(=O)c1cccc(NC(=O)Nc2ccccc2)c1 showed a melting point of 209 to 210 °C. Compound COc1ccc(CCl)c(C)c1OC has a melting point of 67 to 68.5 °C. With COC(=O)c1cc(I)ccc1N=C=S the melting point was 60 to 62 °C. Compound CC(C(=O)O)c1ccc(OCCNC(=O)C2Cc3ccccc3N2S(=O)(=O)c2ccc(-c3cc(C(F)(F)F)ccc3Cl)cc2)cc1 (stereo unspecified) has a melting point of 91 to 100 °C. In the case of Cc1ccc(Cl)c(N)c1C(N)=O, the melting point is reported as 124 to 128 °C. For CN(C)c1nc(N)nc2c1ncn2C1CC(F)C(CO)O1 (stereo unspecified), the melting point was 96 to 100 °C. CC(=NNC(=O)OC1CC(C)CCC1C(C)C)c1ccncc1 (stereo unspecified) showed a melting point of 188 °C. COc1c(Cc2ccccc2)cc(C(=O)O)c2ccccc12 showed a melting point of 146 to 148 °C. In the case of Oc1ccc(-c2nc3cc(O)c(Cl)cc3o2)cc1F, the melting point is reported as 197 to 199 °C. For Oc1ccc(Cl)c(-n2ccnc2)c1, the melting point was 204 to 205 °C. With CN(C)c1cccc(Oc2cccc(Cl)n2)c1 the melting point was 71 to 72 °C. Compound CC(C)S(=O)(=O)C(C#N)=C(Nc1cc(C(F)(F)F)cc(C(F)(F)F)c1)NC1CCC1 has a melting point of 148 to 150 °C. With COc1cc(Cl)cc(Cl)c1O the melting point was 62 °C. For CC(=O)NC1(c2ccc(C(C)Cl)cc2)CC1 (stereo unspecified), the melting point was 104 to 107 °C. Compound COC(=O)C(C)(C)Cc1c(SC(C)(C)C)c2cc(OCc3ccc4cc(F)ccc4n3)ccc2n1Cc1ccc(Cl)cc1 has a melting point of 165 to 167 °C. In the case of Cc1cnn(C(C)(C)C(=O)N(C)C)c1-c1ccccc1, the melting point is reported as 136 to 139 °C. Compound CN(C)c1c(F)c(F)c(F)c2c1c(=O)cc(C(=O)O)n2C1CC1 has a melting point of 160 to 163 °C. With COc1nc(Cl)cnc1NC(=O)OCC(C)C the melting point was 90 to 91 °C. For CC(=O)OCC1OC(OC2C(COC(C)=O)OC(OCCBr)C(OC(C)=O)C2OC(C)=O)C(OC(C)=O)C(OC(C)=O)C1OC(C)=O (stereo unspecified), the melting point was 151 to 152 °C. Work on O=C(c1ccc(Cl)nc1)N1Cc2cccn2Cc2ccccc21 yielded a melting point of 165 to 167 °C. CCS(=O)(=O)Nc1cc(-c2nc[nH]c(=O)c2Cl)c(F)cc1C#N gave a melting point of 249 to 252 °C. Compound CCOC(=O)Cc1sc(Sc2ccnc(SC)n2)nc1C has a melting point of 68 to 72 °C. Compound C=CCn1c(NNC(=O)CCCl)nc2ccccc2c1=O has a melting point of 151 to 153 °C. C[C@H](O)[C@@H](CCc1cccc(Cl)c1Cl)n1cnc(C(N)=O)c1 showed a melting point of 70 to 75 °C. For CN(CCCCCNC(=O)NCCCOc1cccc(CN2CCCCC2)c1)CCN(Cc1ccc(F)cc1)c1ccccn1, the melting point was 63 °C. CCOC(=O)Nc1nc(-c2ccccc2)c(-c2nc3ccccc3c(=O)n2-c2cccc(C)c2)s1 gave a melting point of 261 to 263 °C. O=C(Nc1ccccc1)OC(c1cccnc1)C(Cl)(Cl)Cl (stereo unspecified) gave a melting point of 146 °C. O=C(O)C1=CSC2C(=CC3=CN4CCCCCC4N3)C(=O)N12 (stereo unspecified) gave a melting point of over 250 °C. In the case of CCCC(C=NNC(=O)OCC)c1ccc(Cl)cc1Cl (stereo unspecified), the melting point is reported as 127 to 129 °C. For COc1cc(C(=O)c2csc(-c3ccc(N)cc3)n2)cc(OC)c1OC, the melting point was 166 to 169 °C. In the case of CCCCCCCCOc1cc(O)c2c(=O)c3ccccc3oc2c1, the melting point is reported as 98 °C.
